For the assay, the target named is aggregated MBP-HTT(1-89)Q46-His(6×) (Exonl-Q46) protein (Q46 protein aggregates) (Homo sapiens (Human), UniProt P42858, INS38QQQQQQQQQQQQQQQQQQQQQQQQQ). The assay is described as follows: Q46 Radioligand Binding Assay. The settings on record: read-out: Q46_RBA EC50_. On the procedure:
Q46 Radioligand Binding Assay
For radioligand binding assays (RBA) MBP-HTT(1-89)Q46-His(6×) (“Exonl-Q46”) protein was generated based on a previous publication (Scherzinger et al. Cell, Vol. 90, 549-558, Aug. 8, 1997). For experiments 30 μM MBP-Exonl-Q46 was incubated with 150 μg/mL thrombin in assay buffer (150 mM NaCl, 50 mM Tris pH 8.0) and 2 mM CaCl2 for 16 hours at 37° C. Aggregated Exonl-Q46 was pelleted by centrifugation for 5 minutes at 13,000 rpm in a bench top centrifuge and re-dissolved in the same volume of assay buffer. Test compounds were prepared by titration in DMSO at 11 concentrations from 63 μM to 2 nM. For the RBA, Q46 protein aggregates and test compounds were pre-incubated in assay buffer for 20 minutes at room temperature, in 100 μL/well in a 96-well plate (pp, round bottom). Then, ligand was added in 50 μL/well and incubated for 60 minutes at 37° C. Final assay concentrations were 1 μM to 30 μM test compound, 1 μM Exonl-Q46 protein (equivalent monomer concentration) and 0.3 nM ligand [^3H3-methyl]-5-((5-methoxypyridin-2-yl)methoxy)-2-(pyrazin-2-yl)benzo[d]oxazole. Samples were transferred onto GF/B filter plates and washed 2× with 200 μL PBS using a Filtermate Harvester. After drying filter plates for 1 hour at 55° C., the back of the plates were sealed with foil and 30 μL/well scintillation fluid (Packard MicroScint 40) added, incubated for 15 minutes in the dark and counted in a MicroBeta reader. For analysis, replicate data from independent assay plates were normalized towards 0% and 100% inhibition using control wells of vehicle (0% inhibition) and 1 μM unlabelled [^3H3-methyl]-5-((5-methoxypyridin-2-yl)methoxy)-2-(pyrazin-2-yl)benzo[d]oxazole (100% inhibition). IC50 values were determined with a sigmoidal inhibition model with four variables (top, bottom, slope, IC50) in a global fit using the normalized replicate data.

The mark [1] stands for this setting: displacement of 0.3 nM [3H3-methyl]-5-((5-methoxypyridin-2-yl)methoxy)-2-(pyrazin-2-yl)benzo[d]oxazole from 1 μM Exonl-Q46 aggregates, method calls the values IC50.
Setting [2] is: same radioligand displacement on Exonl-Q46 aggregates.

This note sets out measurements from US11992535B2, “Compounds and probes for imaging huntingtin protein” (CHDI Foundation, Inc., priority 2019, dated 2024).

Like-named read-outs stand apart in the source and are kept apart here. A value given as a limit tells only on which side of the number the result lay.

aggregated MBP-HTT(1-89)Q46-His(6×) (Exonl-Q46) protein (Q46 protein aggregates), sequence (P42858 other isoform, or with tags, fused parts or gaps, stated change not applied): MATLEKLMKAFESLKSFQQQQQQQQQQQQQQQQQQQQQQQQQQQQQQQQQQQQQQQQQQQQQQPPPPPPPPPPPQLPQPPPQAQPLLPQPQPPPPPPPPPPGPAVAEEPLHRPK

As for `COc1ccc(COc2ccc3c(c2)CN(C(=O)c2ccc(=O)n(CCF)c2)CC3)nc1` [Example 34.1], the EC50 (usually the midpoint of the concentration-response curve) is 5.12 nM under setting [1] and less than 100 nM under setting [2].

Regarding `C=CCOc1ccc(COc2ccc3c(c2)CN(C(=O)c2ccc(OC)nc2)CC3)nc1` [Example 35, (7-((5-(Allyloxy)pyridin-2-yl)methoxy)-3,4-dihydroisoquinolin-2(1H)-yl)(6-methoxypyridin-3-yl)methanone], the EC50 under setting [1] is 1.05 nM and the EC50 under setting [2] is less than 100 nM.

`COc1ccc(C(=O)N2CCc3ccc(OCc4ccc(O)cn4)cc3C2)cn1` [Example 35.1, (7-((5-Hydroxypyridin-2-yl)methoxy)-3,4-dihydroisoquinolin-2(1H)-yl)(6-methoxypyridin-3-yl)methanone]: the EC50 under setting [1] was found to be 8.44 nM and the EC50 under setting [2] was less than 100 nM.

Consider `COc1ccc(COc2ccc3c(c2)CN(C(=O)c2ccc(OCF)nc2)CC3)nc1` [Example 36, (6-(Fluoromethoxy)pyridin-3-yl)(7-((5-methoxypyridin-2-yl)methoxy)-3,4-dihydroisoquinolin-2(1H)-yl)methanone], for which the EC50 under setting [1] turned out to be 1.96 nM and the EC50 under setting [2] was less than 100 nM.

Take `COc1ccc(C(=O)N2CCc3ccc(OCc4ccc(OCF)cn4)cc3C2)cn1` [Example 37, (7-((5-(Fluoromethoxy)pyridin-2-yl)methoxy)-3,4-dihydroisoquino-lin-2(1H)-yl)(6-methoxypyridin-3-yl)methanone]: the EC50 is 2.6 nM under setting [1] and less than 100 nM under setting [2].

On to `COc1ccc(C(=O)N2CCc3ccc(OCc4ccc(OCCF)cn4)cc3C2)cn1` [Example 38, (7-((5-(2-Fluoroethoxy)pyridin-2-yl)methoxy)-3,4-dihydroisoquino-lin-2(1H)-yl)(6-methoxypyridin-3-yl)methanone], for which the EC50 was 1.25 nM under setting [1] and less than 100 nM under setting [2].

`COc1ccc(COc2ccc3c(c2)CN(C(=O)c2ccc(=O)[nH]c2)CC3)nc1` [Example 39, 5-(7-((5-Methoxypyridin-2-yl)methoxy)-1,2,3,4-tetrahydroisoquinoline-2-carbonyl)pyridin-2(1H)-one]: the EC50 by setting is: under setting [1], 12 nM; under setting [2], less than 100 nM.

On to `Cn1cc(C(=O)N2CCc3ccc(OCc4ccc(O)cn4)cc3C2)ccc1=O` [Example 40, 5-(7-((5-Hydroxypyridin-2-yl)methoxy)-1,2,3,4-tetrahydroisoquinoline-2-carbonyl)-1-methylpyridin-2(1H)-one], for which the EC50 was 333 nM under setting [1] and 100 to 500 nM under setting [2].

As for `COc1ccc(COc2ccc3c(c2)CN(C(=O)c2ccc(=O)n(C)c2)CC3)nc1` [Example 41, 5-(7-((5-Methoxypyridin-2-yl)methoxy)-1,2,3,4-tetrahydroisoquin-oline-2-carbonyl)-1-methylpyridin-2(1H)-one], the EC50 by setting is: under setting [1], 23.5 nM; under setting [2], less than 100 nM.
